In patent US20200247897A1, “THERAPEUTIC ANTIBODIES BASED ON MUTATED IGG HEXAMERS” (GENMAB B.V., priority 2017, published 2020):

System: panel of 235 cell lines representing 14 tumor lineages
Assay: ATPlite growth inhibition screening of a human cancer cell line panel (Horizon Discovery)
Type: cell-based
Method: A 72 hour ATPlite assay (except for DLD-1 and HCT116 cell lines, for which a 120 hour assay was performed) with growth inhibition analysis was performed in two parts at Horizon Discovery Ltd, UK. Samples were tested as four replicates in 384-well assay plates. Serial dilution series of antibody, starting from 0.072 μM final concentration was used for all tested cell lines. For TRAIL (Invitrogen; Cat # PHC1634) serial dilution series starting from 0.01 μM final concentration for the cell lines tested in the first part and 0.17 μM final concentration for the cell lines tested in the second part of the screening was used.

[1] = MCAS, ovary cancer, screening #1
[2] = MCF7, breast cancer, screening #2
[3] = MDA-MB-453, breast cancer (TNBC), screening #2
[4] = MDA-MB-468, breast cancer (TNBC), screening #2
[5] = OVCAR-5, ovary cancer, screening #1
[6] = OVK18, ovary cancer, screening #1
[7] = PK-1, pancreatic cancer, screening #1
[8] = PSN1, pancreatic cancer, screening #1
[9] = Panc 02.13, pancreatic cancer, screening #1
[10] = RERF-LC-KJ, NSCLC, screening #1
[11] = RT4, bladder cancer, screening #2
[12] = RT-112, bladder cancer, screening #2
[13] = SCaBER, bladder cancer, screening #1
[14] = SF295, neural tissue cancer, screening #2
[15] = SK-BR-3, breast cancer, screening #2
[16] = SNU119, ovary cancer, screening #1
[17] = SNU-308, liver cancer, screening #1
[18] = SW780, bladder cancer, screening #1
[19] = T47D, breast cancer, screening #2
[20] = T-24, bladder cancer, screening #2
[21] = TCCSUP, bladder cancer, screening #2
[22] = UM-UC-3, bladder cancer, screening #1

- IC50 (LC1F, NSCLC, screening #1): 451 pM
- IC50 (LC-1sq, NSCLC, screening #1): 781 pM
- IC50 (LCLC-103H, NSCLC, screening #1): 8020 pM
- IC50 (LOU-NH91, NSCLC, screening #1): 5380 pM
- IC50 (LUDLU-1, NSCLC, screening #1): 475 pM
- IC50 [1]: 56800 pM
- IC50 [2]: 55 pM
- IC50 (MDA-MB-231, breast cancer (TNBC), screening #1): 110 pM
- IC50 (MDA-MB-436, breast cancer (TNBC), screening #2): 53 pM
- IC50 [3]: 34600 pM
- IC50 [4]: 647 pM
- IC50 (MDST8, colorectal cancer, screening #1): 1190 pM
- IC50 (MES-SA, endometrial cancer, screening #1): 107 pM
- IC50 (NCI-H460, NSCLC, screening #1): 853 pM
- IC50 (NCI-H820, NSCLC, screening #1): 23 pM
- IC50 (NMC-G1, neural tissue cancer, screening #2): 17600 pM
- IC50 [5]: 1120 pM
- IC50 [6]: 230 pM
- IC50 [7]: 548 pM
- IC50 [8]: 205 pM
- IC50 [9]: 1900 pM
- IC50 [10]: 633 pM
- IC50 (RL95-2, endometrial cancer, screening #1): 155 pM
- IC50 [11]: 244 pM
- IC50 [12]: 325 pM
- IC50 [13]: 82 pM
- IC50 (SF126, neural tissue cancer, screening #2): 13 pM
- IC50 [14]: 23 pM
- IC50 [15]: 518 pM
- IC50 (SNB-75, neural tissue cancer, screening #2): 105000 pM
- IC50 (SNG-II, endometrial cancer, screening #1): 1030 pM
- IC50 (SNU5, gastric cancer, screening #1): 109 pM
- IC50 [16]: 82 pM
- IC50 (SNU1033, colorectal cancer, screening #1): 10100 pM
- IC50 (SNU-175, colorectal cancer, screening #1): 122 pM
- IC50 [17]: 937 pM
- IC50 (SNU-407, colorectal cancer, screening #1): 98 pM
- IC50 (SNU-478, liver cancer, screening #1): 516 pM
- IC50 (SNU-601, gastric cancer, screening #1): 284 pM
- IC50 (SNU-620, gastric cancer, screening #1): 45 pM
- IC50 (SNU-668, gastric cancer, screening #1): 41 pM
- IC50 (SNU-719, gastric cancer, screening #1): 1130 pM
- IC50 (SNU-869, liver cancer, screening #1): 2950 pM
- IC50 (SNU-1197, colorectal cancer, screening #1): 53 pM
- IC50 (SNU-C2B, colorectal cancer, screening #1): 713 pM
- IC50 (SUM159PT, breast cancer (TNBC), screening #2): 33 pM
- IC50 (SW480, colorectal cancer, screening #1): 2040 pM
- IC50 [18]: 16 pM
- IC50 (SW837, colorectal cancer, screening #1): 940 pM
- IC50 (T3M-10, NSCLC, screening #1): 495 pM
- IC50 [19]: 347000 pM
- IC50 [20]: 166 pM
- IC50 [21]: 48 pM
- IC50 (TE-4, head and neck cancer, screening #1): 107 pM
- IC50 (TE-6, head and neck cancer, screening #1): 3920 pM
- IC50 (TE-9, head and neck cancer, screening #1): 300 pM
- IC50 (TEN, endometrial cancer, screening #1): 1200 pM
- IC50 (U-87 MG, neural tissue cancer, screening #2): 53 pM
- IC50 [22]: 5 pM
- IC50 (YD-15, head and neck cancer, screening #1): 114 pM
- IC50 (YH-13, neural tissue cancer, screening #2): 317 pM
Substance: TRAIL: natural DR5 ligand, recombinant human TRAIL/APO-2L
- Max Inhibition (KURAMOCHI, ovary cancer, screening #1): 13.4%
- Max Inhibition (LC1F, NSCLC, screening #1): 74.3%
- Max Inhibition (LC-1sq, NSCLC, screening #1): 70.1%
- Max Inhibition (LCLC-97TM1, NSCLC, screening #1): 4.6%
- Max Inhibition (LCLC-103H, NSCLC, screening #1): 54.2%
- Max Inhibition (LK-2, NSCLC, screening #1): 5.6%
- Max Inhibition (LOU-NH91, NSCLC, screening #1): 63.0%
- Max Inhibition (LU-65, NSCLC, screening #1): 32.4%
- Max Inhibition (LU-99, NSCLC, screening #1): 6.3%
- Max Inhibition (LUDLU-1, NSCLC, screening #1): 91.1%
- Max Inhibition (LXF-289, NSCLC, screening #1): 12.7%
- Max Inhibition [1]: 48.4%
- Max Inhibition [2]: 21.7%
- Max Inhibition [3]: 20.7%
- Max Inhibition [4]: 89.4%
- Max Inhibition (MEL-HO, melanoma, screening #1): 16.7%
- Max Inhibition (MEL-JUSO, melanoma, screening #1): 7.6%
- Max Inhibition (NCI-H460, NSCLC, screening #1): 86.1%
- Max Inhibition (NCI-H820, NSCLC, screening #1): 100.0%
- Max Inhibition (OV7, ovary cancer, screening #1): 20.4%
- Max Inhibition [5]: 70.6%
- Max Inhibition (OVISE, ovary cancer, screening #1): 4.0%
- Max Inhibition [6]: 80.0%
- Max Inhibition (OVTOKO, ovary cancer, screening #1): 28.0%
- Max Inhibition [7]: 88.3%
- Max Inhibition [8]: 86.9%
- Max Inhibition [9]: 60.5%
- Max Inhibition [10]: 68.9%
- Max Inhibition [11]: 91.5%
- Max Inhibition [12]: 50.9%
- Max Inhibition (RVH-421, melanoma, screening #1): 22.5%
- Max Inhibition [13]: 25.8%
- Max Inhibition [14]: 87.5%
- Max Inhibition [15]: 38.1%
- Max Inhibition (SK-MEL-30, melanoma, screening #1): 6.1%
- Max Inhibition [16]: 83.7%
- Max Inhibition [17]: 72.4%
- Max Inhibition (SNU-878, liver cancer, screening #1): 36.2%
- Max Inhibition [18]: 97.9%
- Max Inhibition (SW1573, NSCLC, screening #1): 13.9%
- Max Inhibition (T3M-10, NSCLC, screening #1): 83.7%
- Max Inhibition [19]: 8.4%
- Max Inhibition [20]: 20.5%
- Max Inhibition [21]: 51.5%
- Max Inhibition [22]: 99.4%
- Max Inhibition (VMRC-LCD, NSCLC, screening #1): 19.2%
- Max Inhibition (WM-266-4, melanoma, screening #1): 42.5%
- responder cell lines (maximum response threshold 70% inhibition) (monotherapy, 72 hour ATPlite assay): found for all tested tumor indications, except small cell lung cancer (SCLC)
